Assay: gradient 5% acetonitrile 3 min, to 50% in 2 min, to 85% in 15 min, held 3 min, 100 µL/min
Settings: column: Zorbax Extend-C18 2.1 x 50 mm; eluents: water / acetonitrile, 0.1% formic acid
In short: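 Over 3 months, pure standards in mixtures of ~100 molecules were run by HPLC coupled to a quadrupole time-of-flight mass spectrometer in positive and negative ionization mode. The column was a Zorbax Extend-C18 (2.1 × 50 mm, 1.8 μm) at 100 μL/min, eluted with water and acetonitrile each holding 0.1% formic acid, with 40 μL dead and 900 μL dwell volumes. Retention time was determined from adduct peaks chosen by software and checked manually.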

RP-LC retention time [s]	SMILES
750	CCCC(=O)NC1CCN(c2cc(C)cc(C)c2)C1=O (centres undefined)
667	Cc1cc(=O)n(CC(=O)N2CCc3ccccc32)c(N2CCOCC2)n1
1210	Cc1ccc(-n2ncc3c(=O)n(Cc4nc(-c5ccc(Cl)c(F)c5)no4)cnc32)cc1
599	CCCC1c2nccn2CCCN1C(=O)c1cccn1C (centres undefined)
867	CSc1cccc(NC(=O)NC2CCN(c3ccc(F)c(C)c3)C2=O)c1 (centres undefined)
733	Cn1c(=O)n([C@H]2CCN(C(=O)C3(c4ccccc4)CC3)C2)c2ncccc21
792	O=C(N[C@H]1C[C@@H]2C[C@H]1CN2S(=O)(=O)c1cccc2cccnc12)c1ccccc1
776	CN(C)c1cccc(C(=O)Nc2cc(-c3ccccn3)no2)c1
678	Cc1ccc(-c2ccc(=O)n(CCCC(=O)Nc3ccc(-c4ccc(=O)[nH]n4)cc3)n2)cc1
647	CCc1ccc(-c2cc3c(=O)n(Cc4noc(CN5CCN(C)CC5)n4)ccn3n2)cc1
931	O=C1CC(c2noc(-c3ccc(F)cc3)n2)CN1Cc1ccccc1 (centres undefined)
886	CCn1nc(C)n2cc(S(=O)(=O)NCc3cc(F)cc(F)c3)cc2c1=O
906	Cc1ccc(-c2nc(NC3CCCCC3C)c3ccccc3n2)cc1 (centres undefined)
632	CCc1nc(N)n(CC(=O)NCc2ccc(F)cc2F)c(=O)c1C
599	O=C(CNC(=O)c1ccc(=O)[nH]c1)NCC1CCCCC1
1010	CCOc1ccc(CNC(=O)c2c(C)sc3ccn(CC(C)C)c(=O)c23)cc1
808	CCOC(=O)C1CCN(C(=O)C2COC3(CCCCC3)N2C(=O)c2ccccc2)CC1 (centres undefined)
810	COc1cc(OC)c(NC(=O)C2CCN(C(=O)C3Sc4ccccc4NC3=O)CC2)cc1Cl (centres undefined)

RP-LC retention time [s]	SMILES
946	Cc1ccc(Cl)cc1NC(=O)NCCc1cn(CC(C)C)c2ncccc12
1010	CCc1nc(-c2csc(S(=O)(=O)N3CCCC(C(=O)Nc4ccccc4C)C3)c2)no1 (centres undefined)
716	Cc1c(-c2cccc(NC(=O)c3cc(Br)ccc3Cl)c2)nc2ncccn12
579	CN1C(=O)CSc2ccc(NC(=O)N3CCN(c4ccccn4)CC3)cc21
1220	CCc1ccc(-n2nc(C)c3c(C(F)(F)F)cc(OCC(=O)N4CCCC4)nc32)cc1
1020	CC(C)Cn1cc(S(=O)(=O)NCc2ccccc2Cl)c2cccnc21
1030	O=C(/C=C/c1ccccc1)NC(NC(=S)Nc1ccc(Cl)cc1)C(Cl)(Cl)Cl (centres undefined)
847	CCCn1nc(CNC(=O)Cc2cccs2)c2ccccc21
623	O=C1CCCCC(Cc2ccccc2)(C(=O)Nc2cccnc2)N1 (centres undefined)
922	CCC1Oc2ccc(S(=O)(=O)N3CCC(C(=O)NCc4ccc(F)cc4)CC3)cc2NC1=O (centres undefined)
596	O=C(Nc1ccc(F)cc1F)N1CCN(c2cc(-c3ccncc3)[nH]n2)CC1
693	Cc1cc(C)cc(-n2c(CN3CCN(C(=O)Nc4ccc5c(c4)OCCO5)CC3)nc3cccnc32)c1
933	O=C(Nc1ccc(F)cc1)C1CCCN(S(=O)(=O)Cc2ccc(F)cc2)C1 (centres undefined)
730	COc1ccc(OC)c(CNC(=O)c2cn3cccc(C)c3n2)c1
577	Cc1nnc(C2CC3(CCN(CCCO)CC3)CN2Cc2ccccc2)o1 (centres undefined)
857	O=C(NCc1cc(F)cc(F)c1)c1cn2cc(Cl)ccc2n1
1020	C=Cc1ccc(Cn2cc(S(=O)(=O)N3CCCCCC3)ccc2=O)cc1
1070	COc1cc(Nc2nc(-c3nnn(-c4cc(Cl)ccc4OC)c3C)ns2)cc(OC)c1

The remaining lines, values behind:

SMILES	RP-LC retention time [s]
CNC(=O)[C@@H]1CN(C(=O)CCc2cc(OC)no2)C[C@H]1c1n[nH]c(C)n1	553
Cc1ccccc1-c1nc(Cn2ccnc2C)no1	555
CCn1c(C(=O)NCCCN2CCCC(C)C2)c(N2CCCC2=O)c2cc(F)ccc21 (centres undefined)	660
Cc1onc(-c2ccccc2Cl)c1C(=O)Nc1nnc(-c2cccs2)o1	767
Cc1cc(NC(=O)N2CCCC(Cn3cnc4cccnc43)C2)ccc1Br (centres undefined)	784
O=C(NCCc1ccccc1)N1CCCC1c1nc(-c2ccccc2)no1 (centres undefined)	922
Cc1ccc(-n2c(N3CCC(C(=O)NC(C)c4ccc(F)cc4)CC3)nc3ccsc3c2=O)cc1 (centres undefined)	1010
CCCCN1CCN(c2ncccc2-c2nnc(-c3ccc(Cl)cc3)o2)CC1	743
Cc1ccc(C(=O)N2CCN(c3nnc4cccc(C)n34)CC2)s1	659
CC(C)c1noc(-c2cc(=O)n(CC(=O)Nc3ccc(Cl)cc3F)c3ccccc23)n1	1100
CC(=O)NC(CCS(C)(=O)=O)C(=O)Nc1ccc(-c2nc3ccc(C)cc3s2)cc1 (centres undefined)	741
N#Cc1cccc(CN2CCCC(c3nc(-c4ccncc4)n[nH]3)C2)c1 (centres undefined)	494
Cc1ccc(NC(=O)C2CCCN2S(=O)(=O)c2cc3c(cc2Cl)NC(=O)CO3)cc1 (centres undefined)	800
CCCCN1C(=O)C(C)(C(=O)NCc2ccc(C)cc2)Oc2cccnc21 (centres undefined)	1040
CC1CCN(S(=O)(=O)c2ccc3nc(N4CCN(C5CCCCC5)CC4)ccc3c2)CC1	776
Cc1cccc(-c2noc(C3CCCN3C(=O)Nc3cccc(F)c3)n2)c1 (centres undefined)	1050
CC(=O)Nc1nnc(SCC(=O)Nc2ccc(OC(F)(F)F)cc2)s1	733
CCCNC(=O)C1CCCN(c2nc3ncn(CC(=O)NCCC4=CCCCC4)c(=O)c3s2)C1 (centres undefined)	732
CCC1Oc2ccc(S(=O)(=O)N3CCC(C(=O)Nc4cccc(F)c4)CC3)cc2NC1=O (centres undefined)	910
Cc1ccc(Cl)cc1NC(=O)C1CCCN1S(=O)(=O)c1cc2c(cc1C)NC(=O)C(C)O2 (centres undefined)	892
O=C(c1cc2ccccc2o1)N1CCC(CNS(=O)(=O)C2CC2)CC1	712
O=C(CSc1cc(-c2nc(-c3ccccc3)no2)ccn1)N1CCCC1	941
O=C(NCC(O)c1ccc(C(F)(F)F)cc1)c1ccco1 (centres undefined)	711
Cn1ncc(Cl)c1C(=O)N1CCCC1c1ccc(F)cc1 (centres undefined)	825
CC(C)NC(=O)N1CCCC(c2cccc(C(=O)NCCN3CCCCC3)c2)C1 (centres undefined)	608
COc1ccc(OC)c(NC(=O)C2CCCN(S(=O)(=O)c3cc(-c4noc(C)n4)cs3)C2)c1 (centres undefined)	966
COc1ccccc1N1CCN(Cc2nc3nc(C)cc(N(C)C)n3n2)CC1	606

SMILES	RP-LC retention time [s]
CC1CCN(S(=O)(=O)c2ccc(-c3nnc(C(=O)NCCCN4CCCC4)o3)cc2)CC1	689
CCN1CCN(c2ccc(NC(=O)c3ccc(F)cc3Cl)cn2)C1=O	742
O=C([C@@H]1C[C@H](Oc2cccnc2)CN1C(=O)c1n[nH]c(=O)c2ccccc12)N1CCCC1	564
CC(=O)N(Cc1nn(C)c2c1CN(S(=O)(=O)Cc1ccccc1Cl)CC2)c1ccccc1	835
CCCn1nnc(NCc2ccc(-c3ccc(Br)cc3Cl)o2)n1	1230
CCOc1cccc(CNC(=O)c2nc3cccnc3n(CC)c2=O)c1	548
COc1ccc(CN2CCC3(CCC3O)CC2)cc1OC (centres undefined)	562
CNC(=O)CN1C(=O)C2CCCCN2c2ccc(S(=O)(=O)N(C)C)cc21 (centres undefined)	690
O=C(Cc1cccc(F)c1)Nc1ccc2c(c1)CCC(=O)N2	650
Clc1ccc(N2CCN(Cc3cc4ccccn4n3)CC2)cc1	754
CCOc1ccc(/C=C/C(=O)Nc2nc(-c3ccc4c(c3)NC(=O)C(C)O4)cs2)cc1OC (centres undefined)	927
Cc1ccc(CNC(=O)C2(C)CN(S(C)(=O)=O)CC(=O)N2c2cccc(Cl)c2)cc1 (centres undefined)	854
Cc1nc2c(sc3nc(-c4ccccc4)ccc32)c(=O)n1CC(=O)Nc1ccc(F)c(Cl)c1	1140
COc1ccc(CCN)cc1	574
CCOC(=O)C1CCN(c2cc3c(cc2NC(=O)NC)n(C)c(=O)n3C)CC1	633
O=C(c1ccccc1)N1CCc2cc(-c3ccno3)ccc21	886
COc1cccc(S(=O)(=O)Nc2ccc3c(c2)CCC(=O)N3CC(C)C)c1	868
CCc1ccc2c(c1)cc(S(=O)(=O)c1ccccc1)c(=O)n2CC(=O)NCCCOC	808
CCOC(=O)N1CCN(S(=O)(=O)c2c[nH]c(=O)[nH]c2=O)CC1	582
C=CCN1CC[C@]23CCCCC2[C@H]1Cc1ccc(O)cc13 (some centres undefined)	691
CCc1nccn1Cc1nc(-c2cc(OC)c(OC)c(OC)c2)no1	621
O=C(N[C@H]1C[C@@H]2C[C@H]1N(C(=O)Cc1cccs1)C2)c1ccccc1	746
COc1ccc(NC(=O)Cn2nc(N3CCCC3)c3ccccc3c2=O)cc1OC	796
COc1ncc(C(=O)N2CCCCC2)cn1	628
COc1cccc(-c2cc(C(N)=O)n(C)n2)c1	646
COc1cccc(C2Cn3nnc(-c4nc(-c5ccc(C(F)(F)F)cc5)no4)c3CO2)c1 (centres undefined)	1270

— the METLIN SMRT retention time set (Domingo-Almenara et al. 2019)
